Experiments:
[1] = system: Salmonella typhimurium TA100; experiment: Ames His+ reversion assay, mutagenesis induced by VC epoxide; type: cell-based
Protocol: (§1) The Ames His+ reversion assay was performed in accordance with the liquid preincubation method using Salmonella typhimurium TA100 as a test strain[see D.M. Maton and B. N. Ames, Mutation Res., 113, pp. 173-221(1983)].
(§2) 25nmol of BPDE was incubated with S. typhimurium TA100 in the absence or presence of a given amount of isopropyl 2-(1,3-dithietan-2-ylidene)-2-[N-(4-methylthiazol-2-yl)carbamoyl]acetate at 37 °C for 20 minutes.
(§3) Then, the mixture was diluted with soft agar, poured onto hard agar plates, and incubated for another 48 hours to allow the development of His+ revertant colonies. The data are expressed as average of values from duplicate analysis.
The procedure of Test Example 1-2 was repeated except that Salmonella typhimurium TA100 was used as a test strain and vinyl carbamate epoxide(25 and 50nmol) was used as mutagens.

mouse skin tumor [2] = experiment: Mouse skin tumor test, carcinogenesis induced by VC (topical initiation, TPA promotion); type: in vivo, female ICR mice; details: VC 5.8 µmol topical, pretreatment 2.5µmol compound or 8µmol diallyl sulfide
Protocol: (§4) Inhibitory effect of isopropyl 2-(1,3-dithietan-2-ylidene)-2-[N-(4-methylthiazol-2-yl)carbamoyl]acetate on mouse skin tumor was also investigated.
The dorsal region of female ICR mice (6- to 7-week old) was shaved. Groups of 30 mice were administered with 2.5µmol isopropyl 2-(1,3-dithietan-2-ylidene)-2-[N-(4-methylthiazol-2-yl)carbamoyl]acetate in 0.2% sodium carboxymethyl cellulose or 8µmol of diallyl sulfide in 0.1M sterilized potassium phosphate buffer. After 10 minutes, the mice were administered topically with VC(5.8 µmol) in 0.2ml acetone containing 15% DMSO. Control group was administered with VC alone.
One week after the initiation, the mice were administered topically with 15nmol TPA(12-O-tetradecanoyl phorbol-13-acetate)in 0.1 ml acetone twice a week to promote carcinogenic process.
Tumors of at least 1 mm in diameter were counted and recorded every other week. The results are shown in Table V. Numbers in parentheses indicate the % of tumor bearing mice.

[3] = system: Salmonella typhimurium TA98; experiment: Ames His+ reversion assay, mutagenesis induced by B[a]P (liquid preincubation, S9); type: cell-based; details: 2.5µg B[a]P, control (0 µg) 116±3.6
Protocol: (§5) Male Sprague-Dawley rats (40 to 45 day old) were fed with a standard laboratory pellet diet and water ad libitum under standard conditions(12h light-12h dark cycle, temp.: 21±2°C). They were treated intraperitoneally with Aroclor 1254 (500mg/kg in corn oil) for 5 consecutive days prior to sacrifice. Rats were killed by CO2 asphyxiation, and their livers were immediately removed and perfused in situ with ice-cooled isotonic KCl solution. The liver tissue was weighed, minced, and homogenized in 3-fold volumes of ice-cooled 0.25M sucrose solution by employing a motorized Potter-Elvehjem glass-Teflon homogenizer. The homogenates were centrifuged at 9,000 X g for 30 minutes and the supernatant(S9 fraction) was used as the source of enzymes.
(§6) The Ames His+ reversion assay was performed in accordance with the liquid preincubation method using Salmonella typhimurium TA98 and TA100 as test strains[see D.M. Maton and B. N. Ames, Mutation Res., 113, pp. 173-221(1983)].
(§7) Each of TA98 and TA100(1 to 2 x 10^9/plate) and 2.5µg of B[a]P dissolved in DMSO were added to the Aroclor 1254-induced rat hepatic postmitochondrial supernatant containing NADPH-generating system obtained above([…] containing about 2mg protein). Various amounts of isopropyl 2-(1,3-dithietan-2-ylidene)-2-[N-(4-methylthiazol-2-yl)carbamoyl]acetate were added thereto, and preincubated at 37°C for 20 minutes.
(§8) The mixture was then diluted with soft agar, poured onto hard agar plates, and incubated for another 48 hours to allow the development of His+ revertant colonies. The data were corrected for the numbers of spontaneous revertant.

[4] = system: Salmonella typhimurium TA100; experiment: as above; type: cell-based; details: 2.5µg B[a]P, control (0 µg) 248±26.0
Protocol: as §5, §6, §7, §8

[5] = system: Salmonella typhimurium TA100 and TA1535; experiment: Ames His+ reversion assay, mutagenesis induced by VC (Figure 1); type: cell-based; details: vinyl carbamate 10µmol; compound 2.5µg and 25µg; values only in Figure 1
Protocol: as §5, §6
[…] Various amounts of isopropyl 2-(1,3-dithietan-2-ylidene)-2-[N-(4-methylthiazol-2-yl)carbamoyl]acetate were added thereto, and preincubated at 37°C for 20 minutes.
The mixture was then diluted with soft agar, poured onto hard agar plates, and incubated for another 48 hours to allow the development of His+ revertant colonies. The data were corrected for the numbers of spontaneous revertant. […]

mouse skin tumor [6] = experiment: Mouse skin tumor test, carcinogenesis induced by B[a]P or VC (gavage pretreatment, TPA promotion); type: in vivo, female CD-1 mice; details: 16 weeks, diallyl sulfide 0.2mg/10µl/g body wt.
Protocol: as §4
trioctanoin, or isopropyl 2-(1,3-dithietan-2-ylidene)-2-[N-(4-methylthiazol-2-yl)carbamoyl]acetate(0.15mg/10µl/g body wt.) or diallyl sulfide(0.2mg/10µl/g body wt.) suspended in trioctanoin were administered to female CD-1 mice(6 weeks old) by gastric gavage method 24 hours and 1 hour prior to the intraperitoneal injection of B[a]P(0.3µmol) or VC(11.5µmol) in 0.2ml acetone or the same volume of acetone alone.
One week after the initiation, animals were administered topically with 15nmol TPA(12-O-tetradecanoyl phorbol-13-acetate) in 0.1ml acetone twice a week to promote carcinogenesis.
Tumors of at least 1 mm in diameter were counted and recorded at 16 weeks after initiation.

calf thymus DNA = experiment: Covalent binding test of [3H]-B[a]P to DNA; type: biochemical; details: 37°C, 30 minutes, control (0 µM) 60±7.1
Protocol: 2ml of the mixture of 50mM potassium phosphate buffer (pH 7.4) containing 0.25µg of [^3H]-B[a]P(specific activity: 12.35mCi/mmol), 2mg of calf thymus DNA, 25mg of EDTA, NADPH(0.65mM), and 4 mg of hepatic postmitochondrial supernatant was incubated with isopropyl 2-(1,3-dithietan-2-ylidene)-2-[N-(4-methylthiazol-2yl)carbamoyl]acetate of various concentrations at 37°C for 30 minutes.
DNA was isolated by ethanol precipitation after the removal of proteins. DNA pellets thus obtained were successively rinsed with 75% ethanol containing 1% NaCl, 75% ethanol, absolute ethanol, acetone and ethyl ether, and then dried.
Dried DNA samples were dissolved in 15 mM NaCl-1.5mM sodium citrate buffer(pH 7.0). The DNA concentration was determined by diphenylamine method using calf thymus DNA as a standard[see K. Burton and G.B. Peterson, Biochem. J., 75, pp.17-27, 1960].
Aliqouts of DNA solutions were dissolved in Solvable(Du Pont/NEN Research Products, Boston, MA). After neutralization with glacial acetic acid, the levels of radio-labeled hydrocarbons covalently bound to DNA were determined by employing a liquid scintillation counter with the addition of Liquescent(National Diagnostics, Manville, NJ) as a cocktail.

[7] = system: Salmonella typhimurium TA100; experiment: Ames His+ reversion assay, mutagenesis induced by BPDE; type: cell-based; details: 25nmol BPDE; for No. of His+ revertant/plate: control (0 µg) 706
Protocol: as §1, §2, §3

[8] = initiator B[a]P 0.3µmol, gavage pretreatment compound 0.15mg/10µl/g, trioctanoin control 6.7±5.1
[9] = initiator B[a]P 0.3µmol, gavage pretreatment compound 0.15mg/10µl/g, trioctanoin control 92
[10] = initiator VC 11.5µmol, gavage pretreatment compound 0.15mg/10µl/g, trioctanoin control 1.0±1.6
[11] = initiator VC 11.5µmol, gavage pretreatment compound 0.15mg/10µl/g, trioctanoin control 58
[12] = initiator acetone alone, gavage 24 hours and 1 hour before, compound 0.15mg/10µl/g

Cc1csc(NC(=O)C(C(=O)OC(C)C)=C2SCS2)n1 [Compound, Isopropyl 2-(1,3-dithietan-2-ylidene)-2-[N-(4-methylthiazol-2-yl)carbamoyl]acetate]
No. of His+ revertant/plate ([1]; VC epoxide 25 nmol, compound 2.5 µg, control (0 µg) 283): 247
No. of His+ revertant/plate ([1]; VC epoxide 25 nmol, compound 10 µg, control (0 µg) 283): 239
No. of His+ revertant/plate ([1]; VC epoxide 25 nmol, compound 25 µg, control (0 µg) 283): 201
No. of His+ revertant/plate ([1]; VC epoxide 50 nmol, compound 2.5 µg, control (0 µg) 598): 541
No. of His+ revertant/plate ([1]; VC epoxide 50 nmol, compound 10 µg, control (0 µg) 598): 509
No. of His+ revertant/plate ([1]; VC epoxide 50 nmol, compound 25 µg, control (0 µg) 598): 471
Average No. of papillomas/mouse (mouse skin tumor [2]; week 14, VC alone 0.9±1.1): 0.2±0.5
% of tumor bearing mice (mouse skin tumor [2]; week 14, VC alone 53): 20%
Average No. of papillomas/mouse (mouse skin tumor [2]; week 16, VC alone 1.4±1.7): 0.4±0.7
% of tumor bearing mice (mouse skin tumor [2]; week 16, VC alone 63): 30%
Average No. of papillomas/mouse (mouse skin tumor [2]; week 18, VC alone 1.8±1.9): 0.6±0.9
% of tumor bearing mice (mouse skin tumor [2]; week 18, VC alone 67): 40%
Average No. of papillomas/mouse (mouse skin tumor [2]; week 20, VC alone 2.4±2.1): 0.8±1.0
% of tumor bearing mice (mouse skin tumor [2]; week 20, VC alone 70): 50%
No. of His+ revertant/plate ([3]; compound 1 µg): 84±16.1
No. of His+ revertant/plate ([3]; compound 5 µg): 48±3.2
No. of His+ revertant/plate ([3]; compound 25 µg): 23±2.5
No. of His+ revertant/plate ([4]; compound 1 µg): 205±23.1
No. of His+ revertant/plate ([4]; compound 5 µg): 140±4.6
No. of His+ revertant/plate ([4]; compound 25 µg): 93±8.7
effect on mutagenesis induced by VC [5]: dose-dependently inhibit
Ave. No. of tumor/mouse (mouse skin tumor [6]; [8]): 2.8±3.4
% mice with papillomas (mouse skin tumor [6]; [9]): 72%
Ave. No. of tumor/mouse (mouse skin tumor [6]; [10]): 0.5±0.8
% mice with papillomas (mouse skin tumor [6]; [11]): 36%
% mice with papillomas (mouse skin tumor [6]; [12]): 0%
Ave. No. of tumor/mouse (mouse skin tumor [6]; [12]): 0
Covalent DNA binding (calf thymus DNA; compound 5 µM): 22 ± 2.0 pmol
Covalent DNA binding (calf thymus DNA; compound 50 µM): 16 ± 3.2 pmol
% inhibition ([7]; compound 2.5 µg): 58%
No. of His+ revertant/plate ([7]; compound 2.5 µg): 301
% inhibition ([7]; compound 10 µg): 69%
No. of His+ revertant/plate ([7]; compound 10 µg): 217
% inhibition ([7]; compound 25 µg): 74%
No. of His+ revertant/plate ([7]; compound 25 µg): 180

C=CCSCC=C [Diallyl sulfide, reference compound]
Average No. of papillomas/mouse (mouse skin tumor [2]; week 14, VC alone 0.9±1.1): 0.2±0.5
% of tumor bearing mice (mouse skin tumor [2]; week 14, VC alone 53): 17%
Average No. of papillomas/mouse (mouse skin tumor [2]; week 16, VC alone 1.4±1.7): 0.5±0.9
% of tumor bearing mice (mouse skin tumor [2]; week 16, VC alone 63): 30%
Average No. of papillomas/mouse (mouse skin tumor [2]; week 18, VC alone 1.8±1.9): 0.7±1.1
% of tumor bearing mice (mouse skin tumor [2]; week 18, VC alone 67): 37%
Average No. of papillomas/mouse (mouse skin tumor [2]; week 20, VC alone 2.4±2.1): 0.9±1.1
% of tumor bearing mice (mouse skin tumor [2]; week 20, VC alone 70): 50%
Ave. No. of tumor/mouse (mouse skin tumor [6]; [8]): 4.0±5.6
% mice with papillomas (mouse skin tumor [6]; [9]): 64%
Ave. No. of tumor/mouse (mouse skin tumor [6]; [10]): 0.4±0.9
% mice with papillomas (mouse skin tumor [6]; [11]): 28%
% mice with papillomas (mouse skin tumor [6]; [12]): 0%
Ave. No. of tumor/mouse (mouse skin tumor [6]; [12]): 0
